Data from PMC3398342, “Cyanidin-3-O-β-glucoside regulates fatty acid metabolism via an AMP-activated protein kinase-dependent signaling pathway in human HepG2 cells” (2012).

Assays:
[1] = target: T1, glycogen phosphorylase (GPPase) (Oryctolagus cuniculus, UniProt P00489); assay: phosphoglucomutase/G6PDH-coupled spectrophotometric activity assay with glycogen; activation; format: biochemical
T1 construct: gene PYGM
T1 sequence (P00489 2-843): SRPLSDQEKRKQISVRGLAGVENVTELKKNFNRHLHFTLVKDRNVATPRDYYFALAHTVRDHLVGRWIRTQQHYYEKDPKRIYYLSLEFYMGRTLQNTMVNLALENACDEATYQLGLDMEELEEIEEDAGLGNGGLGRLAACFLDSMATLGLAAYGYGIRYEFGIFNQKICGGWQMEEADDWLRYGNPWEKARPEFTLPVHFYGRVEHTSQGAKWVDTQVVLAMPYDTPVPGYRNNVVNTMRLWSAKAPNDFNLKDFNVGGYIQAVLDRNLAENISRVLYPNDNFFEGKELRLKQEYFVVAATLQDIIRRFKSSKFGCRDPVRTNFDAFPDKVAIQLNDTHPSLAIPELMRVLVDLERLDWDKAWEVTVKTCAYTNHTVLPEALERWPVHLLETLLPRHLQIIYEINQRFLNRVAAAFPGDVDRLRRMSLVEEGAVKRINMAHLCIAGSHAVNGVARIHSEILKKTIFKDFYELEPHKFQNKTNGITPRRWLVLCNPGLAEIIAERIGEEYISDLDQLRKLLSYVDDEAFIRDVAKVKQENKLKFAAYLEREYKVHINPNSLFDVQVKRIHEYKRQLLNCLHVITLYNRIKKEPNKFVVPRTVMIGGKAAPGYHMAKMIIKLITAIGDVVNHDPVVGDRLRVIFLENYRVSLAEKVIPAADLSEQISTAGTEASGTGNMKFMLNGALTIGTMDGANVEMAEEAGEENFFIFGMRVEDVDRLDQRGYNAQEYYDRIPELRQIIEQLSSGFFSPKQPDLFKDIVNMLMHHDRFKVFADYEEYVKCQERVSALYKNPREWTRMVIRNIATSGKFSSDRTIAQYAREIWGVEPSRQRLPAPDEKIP

[2] = target: T2, fructose1,6-diphosphatase (FBPase); assay: Malachite Green phosphate-release assay with D-fructose-1,6-diphosphate; format: biochemical
T2 construct: gene FBP1

`Nc1ncnc2c1ncn2[C@@H]1O[C@H](COP(=O)(O)O)[C@@H](O)[C@H]1O` [AMP] was tested, and the EC50 [1] was 18.5 µM and the IC50 [2] was 1.6 µM.
